Measurements reported in ChEMBL document CHEMBL4507285, “Data for DCP probe MRL-SYKi” (2021).

Columns and labels:
[1] = tested on: Tyrosine-protein kinase ABL1 (Homo sapiens), P00519 [F317I]; details: Compound concentration 100.0 nM
[2] = tested on: Tyrosine-protein kinase ABL1 (Homo sapiens), P00519 [H396P]; details: Compound concentration 100.0 nM
[3] = tested on: ALK tyrosine kinase receptor (Homo sapiens), Q9UM73 [L1196M]; details: Compound concentration 100.0 nM
[4] = target: 5'-AMP-activated protein kinase catalytic subunit alpha-2 (Homo sapiens) (UniProt P54646); details: Compound concentration 100.0 nM
[5] = target: Tyrosine-protein kinase Blk (Homo sapiens) (UniProt P51451); details: Compound concentration 100.0 nM
Sequence of Tyrosine-protein kinase Blk (Homo sapiens) (P51451 2-505 limits assumed): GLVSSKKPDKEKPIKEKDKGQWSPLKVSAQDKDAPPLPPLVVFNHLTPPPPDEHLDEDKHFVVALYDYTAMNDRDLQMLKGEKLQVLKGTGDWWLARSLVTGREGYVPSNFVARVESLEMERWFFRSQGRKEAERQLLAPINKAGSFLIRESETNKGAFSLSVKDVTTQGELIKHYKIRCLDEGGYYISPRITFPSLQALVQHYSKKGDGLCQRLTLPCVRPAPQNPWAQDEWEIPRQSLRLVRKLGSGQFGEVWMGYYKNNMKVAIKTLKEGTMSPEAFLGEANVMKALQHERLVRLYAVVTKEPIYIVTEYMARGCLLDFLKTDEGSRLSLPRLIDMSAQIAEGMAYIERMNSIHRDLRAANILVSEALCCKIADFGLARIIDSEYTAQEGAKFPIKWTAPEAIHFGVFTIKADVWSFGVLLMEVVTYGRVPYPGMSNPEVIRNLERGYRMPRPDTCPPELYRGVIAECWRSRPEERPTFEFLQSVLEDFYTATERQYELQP

[6] = tested on: Serine/threonine-protein kinase B-raf (Homo sapiens), P15056 [V600E]; details: Compound concentration 100.0 nM
Sequence of Serine/threonine-protein kinase B-raf (Homo sapiens), P15056 [V600E] (P15056 whole entry V600E): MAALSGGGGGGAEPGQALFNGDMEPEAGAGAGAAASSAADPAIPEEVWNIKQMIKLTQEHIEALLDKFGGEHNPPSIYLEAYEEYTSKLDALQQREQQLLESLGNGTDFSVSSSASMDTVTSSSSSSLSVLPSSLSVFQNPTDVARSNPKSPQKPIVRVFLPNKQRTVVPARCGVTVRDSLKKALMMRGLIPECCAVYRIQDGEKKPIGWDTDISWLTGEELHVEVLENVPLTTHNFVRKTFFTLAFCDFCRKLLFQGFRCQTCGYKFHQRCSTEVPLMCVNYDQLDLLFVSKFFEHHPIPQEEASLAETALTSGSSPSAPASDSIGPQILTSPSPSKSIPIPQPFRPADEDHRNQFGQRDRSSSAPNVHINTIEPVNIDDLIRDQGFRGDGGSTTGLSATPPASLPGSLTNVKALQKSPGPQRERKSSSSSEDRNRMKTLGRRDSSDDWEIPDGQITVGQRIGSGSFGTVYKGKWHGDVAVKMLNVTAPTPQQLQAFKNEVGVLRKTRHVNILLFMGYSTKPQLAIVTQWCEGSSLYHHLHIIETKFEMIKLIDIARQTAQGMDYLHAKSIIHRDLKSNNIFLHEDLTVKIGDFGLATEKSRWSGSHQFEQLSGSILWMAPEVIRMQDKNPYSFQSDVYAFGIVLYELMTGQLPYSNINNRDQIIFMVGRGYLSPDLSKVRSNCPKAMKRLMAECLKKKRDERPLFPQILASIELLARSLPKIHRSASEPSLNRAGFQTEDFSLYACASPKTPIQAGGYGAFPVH

[7] = target: Calcium/calmodulin-dependent protein kinase type IV (Homo sapiens) (UniProt Q16566); details: Compound concentration 100.0 nM
[8] = target: Cyclin-dependent kinase 19 (Homo sapiens) (UniProt Q9BWU1); details: Compound concentration 100.0 nM
[9] = target: Cyclin-dependent kinase 7 (Homo sapiens) (UniProt P50613); details: Compound concentration 100.0 nM
[10] = target: Macrophage colony-stimulating factor 1 receptor (Homo sapiens) (UniProt P07333); details: Compound concentration 100.0 nM
[11] = target: Epidermal growth factor receptor (Homo sapiens) (UniProt P00533); details: Compound concentration 100.0 nM
[12] = target: Mitogen-activated protein kinase 4 (Homo sapiens) (UniProt P31152); details: Compound concentration 100.0 nM
[13] = target: Glycogen synthase kinase-3 beta (Homo sapiens) (UniProt P49841); details: Compound concentration 100.0 nM
[14] = target: Interleukin-1 receptor-associated kinase 1 (Homo sapiens) (UniProt P51617); details: Compound concentration 100.0 nM
[15] = tested on: Mast/stem cell growth factor receptor Kit (Homo sapiens), P10721 [V559D,T670I]; details: Compound concentration 100.0 nM
[16] = target: Mitogen-activated protein kinase kinase kinase kinase 4 (Homo sapiens) (UniProt O95819); details: Compound concentration 100.0 nM
[17] = target: Mitogen-activated protein kinase kinase kinase kinase 5 (Homo sapiens) (UniProt Q9Y4K4); details: Compound concentration 100.0 nM
[18] = target: Microtubule-associated serine/threonine-protein kinase 1 (Homo sapiens) (UniProt Q9Y2H9); details: Compound concentration 100.0 nM
[19] = target: Mitogen-activated protein kinase kinase kinase 9 (Homo sapiens) (UniProt P80192); details: Compound concentration 100.0 nM
[20] = target: Serine/threonine-protein kinase Nek7 (Homo sapiens) (UniProt Q8TDX7); details: Compound concentration 100.0 nM
[21] = target: Mitogen-activated protein kinase 13 (Homo sapiens) (UniProt O15264); details: Compound concentration 100.0 nM
Sequence of Mitogen-activated protein kinase 13 (Homo sapiens) (O15264 whole entry): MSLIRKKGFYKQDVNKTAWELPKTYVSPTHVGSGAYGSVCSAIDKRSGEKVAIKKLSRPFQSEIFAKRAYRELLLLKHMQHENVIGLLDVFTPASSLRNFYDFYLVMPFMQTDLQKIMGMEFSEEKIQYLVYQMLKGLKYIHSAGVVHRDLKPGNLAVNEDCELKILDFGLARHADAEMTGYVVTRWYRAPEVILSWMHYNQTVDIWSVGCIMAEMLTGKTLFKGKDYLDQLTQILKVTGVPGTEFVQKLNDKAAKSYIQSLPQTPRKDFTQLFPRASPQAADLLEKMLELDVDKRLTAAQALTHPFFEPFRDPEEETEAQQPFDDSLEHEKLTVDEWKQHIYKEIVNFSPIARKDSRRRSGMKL

[22] = target: Serine/threonine-protein kinase PAK 4 (Homo sapiens) (UniProt O96013); details: Compound concentration 100.0 nM
[23] = target: Serine/threonine-protein kinase PAK 6 (Homo sapiens) (UniProt Q9NQU5); details: Compound concentration 100.0 nM
[24] = target: Serine/threonine-protein kinase PAK 5 (Homo sapiens) (UniProt Q9P286); details: Compound concentration 100.0 nM
[25] = target: 3-phosphoinositide-dependent protein kinase 1 (Homo sapiens) (UniProt O15530); details: Compound concentration 100.0 nM
[26] = target: Cyclin-dependent kinase 15 (Homo sapiens) (UniProt Q96Q40); details: Compound concentration 100.0 nM
[27] = target: Serine/threonine-protein kinase N2 (Homo sapiens) (UniProt Q16513); details: Compound concentration 100.0 nM
[28] = target: Interferon-induced, double-stranded RNA-activated protein kinase (Homo sapiens) (UniProt P19525); details: Compound concentration 100.0 nM
[29] = target: cAMP-dependent protein kinase catalytic subunit PRKX (Homo sapiens) (UniProt P51817); details: Compound concentration 100.0 nM
[30] = target: Serine/threonine-protein kinase SIK3 (Homo sapiens) (UniProt Q9Y2K2); details: Compound concentration 100.0 nM
[31] = target: Serine/threonine-protein kinase RIO3 (Homo sapiens) (UniProt O14730); details: Compound concentration 100.0 nM
[32] = target: Ribosomal protein S6 kinase alpha-2 (Homo sapiens) (UniProt Q15349); details: Compound concentration 100.0 nM
[33] = target: Serine/threonine-protein kinase SBK1 (Homo sapiens) (UniProt Q52WX2); details: Compound concentration 100.0 nM
[34] = target: Serine/threonine-protein kinase Sgk2 (Homo sapiens) (UniProt Q9HBY8); details: Compound concentration 100.0 nM
Sequence of Serine/threonine-protein kinase Sgk2 (Homo sapiens) (Q9HBY8 whole entry): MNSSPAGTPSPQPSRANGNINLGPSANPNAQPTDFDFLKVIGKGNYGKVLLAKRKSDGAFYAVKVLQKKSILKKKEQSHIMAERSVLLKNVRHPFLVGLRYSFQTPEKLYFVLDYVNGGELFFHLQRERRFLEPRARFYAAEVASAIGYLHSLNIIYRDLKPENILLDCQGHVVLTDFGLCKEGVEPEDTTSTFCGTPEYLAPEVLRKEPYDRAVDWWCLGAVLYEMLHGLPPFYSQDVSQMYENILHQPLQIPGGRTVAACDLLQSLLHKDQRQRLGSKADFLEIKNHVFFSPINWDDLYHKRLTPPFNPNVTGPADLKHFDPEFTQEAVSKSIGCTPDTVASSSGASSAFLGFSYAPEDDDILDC

[35] = target: STE20-like serine/threonine-protein kinase (Homo sapiens) (UniProt Q9H2G2); details: Compound concentration 100.0 nM
Sequence of STE20-like serine/threonine-protein kinase (Homo sapiens) (Q9H2G2 whole entry, looked up): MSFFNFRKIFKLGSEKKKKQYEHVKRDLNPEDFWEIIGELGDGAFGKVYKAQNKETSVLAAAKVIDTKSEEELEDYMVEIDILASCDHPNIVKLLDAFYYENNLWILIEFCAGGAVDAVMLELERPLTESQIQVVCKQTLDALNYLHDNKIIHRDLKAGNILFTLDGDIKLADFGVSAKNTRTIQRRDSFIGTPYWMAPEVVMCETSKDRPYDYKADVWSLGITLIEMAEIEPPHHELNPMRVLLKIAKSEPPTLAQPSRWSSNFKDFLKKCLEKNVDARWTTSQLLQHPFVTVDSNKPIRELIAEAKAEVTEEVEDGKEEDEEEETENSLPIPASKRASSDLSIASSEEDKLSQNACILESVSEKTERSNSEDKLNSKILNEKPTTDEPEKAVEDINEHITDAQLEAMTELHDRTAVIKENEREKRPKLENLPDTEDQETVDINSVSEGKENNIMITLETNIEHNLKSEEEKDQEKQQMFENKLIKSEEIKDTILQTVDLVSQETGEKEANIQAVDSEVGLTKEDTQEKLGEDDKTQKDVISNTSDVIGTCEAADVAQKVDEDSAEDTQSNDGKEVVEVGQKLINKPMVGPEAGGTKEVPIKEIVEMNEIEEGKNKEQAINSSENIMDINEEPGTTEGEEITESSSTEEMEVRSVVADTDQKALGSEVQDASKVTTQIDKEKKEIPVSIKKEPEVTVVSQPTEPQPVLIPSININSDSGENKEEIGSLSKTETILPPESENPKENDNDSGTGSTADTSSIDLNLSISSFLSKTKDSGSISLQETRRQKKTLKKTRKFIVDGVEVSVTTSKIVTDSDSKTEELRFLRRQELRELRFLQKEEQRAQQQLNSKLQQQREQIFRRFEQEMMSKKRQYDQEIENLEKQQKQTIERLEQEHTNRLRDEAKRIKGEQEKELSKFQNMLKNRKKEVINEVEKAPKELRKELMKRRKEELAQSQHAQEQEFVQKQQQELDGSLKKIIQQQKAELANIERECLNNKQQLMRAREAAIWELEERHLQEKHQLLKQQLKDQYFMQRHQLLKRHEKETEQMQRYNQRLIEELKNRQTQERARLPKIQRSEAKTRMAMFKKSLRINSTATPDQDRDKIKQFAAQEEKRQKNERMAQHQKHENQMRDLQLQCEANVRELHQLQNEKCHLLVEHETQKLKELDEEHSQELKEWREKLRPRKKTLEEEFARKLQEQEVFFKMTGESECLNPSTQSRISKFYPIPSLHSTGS

[36] = target: SRSF protein kinase 3 (Homo sapiens) (UniProt Q9UPE1); details: Compound concentration 100.0 nM
[37] = target: Tyrosine-protein kinase Tec (Homo sapiens) (UniProt P42680); details: Compound concentration 100.0 nM
[38] = target: Serine/threonine-protein kinase tousled-like 1 (Homo sapiens) (UniProt Q9UKI8); details: Compound concentration 100.0 nM
Sequence of Serine/threonine-protein kinase tousled-like 1 (Homo sapiens) (Q9UKI8 whole entry): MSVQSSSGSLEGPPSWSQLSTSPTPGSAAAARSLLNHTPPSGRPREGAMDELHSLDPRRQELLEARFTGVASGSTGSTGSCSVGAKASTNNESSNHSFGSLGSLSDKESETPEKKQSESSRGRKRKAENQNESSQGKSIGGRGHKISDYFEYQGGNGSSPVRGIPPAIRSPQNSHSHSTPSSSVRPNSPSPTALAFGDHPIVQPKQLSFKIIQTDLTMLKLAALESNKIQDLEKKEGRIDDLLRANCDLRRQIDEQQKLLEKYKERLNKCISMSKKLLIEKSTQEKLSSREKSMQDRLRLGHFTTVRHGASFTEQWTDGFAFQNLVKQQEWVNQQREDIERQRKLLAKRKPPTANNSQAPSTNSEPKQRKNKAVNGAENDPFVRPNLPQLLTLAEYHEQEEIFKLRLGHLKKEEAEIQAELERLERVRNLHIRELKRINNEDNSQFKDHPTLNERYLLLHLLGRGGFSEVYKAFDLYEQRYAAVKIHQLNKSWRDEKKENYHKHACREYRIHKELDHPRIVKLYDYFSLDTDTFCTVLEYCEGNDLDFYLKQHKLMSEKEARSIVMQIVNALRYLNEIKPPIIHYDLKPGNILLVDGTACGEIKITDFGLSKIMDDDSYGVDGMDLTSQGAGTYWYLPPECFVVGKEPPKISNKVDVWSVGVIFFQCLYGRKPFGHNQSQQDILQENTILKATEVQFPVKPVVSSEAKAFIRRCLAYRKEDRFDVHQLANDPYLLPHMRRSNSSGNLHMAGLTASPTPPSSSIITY

[39] = target: Non-receptor tyrosine-protein kinase TYK2 (Homo sapiens) (UniProt P29597); details: Compound concentration 100.0 nM
[40] = target: Serine/threonine-protein kinase 32C (Homo sapiens) (UniProt Q86UX6); details: Compound concentration 100.0 nM
Sequence of Serine/threonine-protein kinase 32C (Homo sapiens) (Q86UX6 whole entry): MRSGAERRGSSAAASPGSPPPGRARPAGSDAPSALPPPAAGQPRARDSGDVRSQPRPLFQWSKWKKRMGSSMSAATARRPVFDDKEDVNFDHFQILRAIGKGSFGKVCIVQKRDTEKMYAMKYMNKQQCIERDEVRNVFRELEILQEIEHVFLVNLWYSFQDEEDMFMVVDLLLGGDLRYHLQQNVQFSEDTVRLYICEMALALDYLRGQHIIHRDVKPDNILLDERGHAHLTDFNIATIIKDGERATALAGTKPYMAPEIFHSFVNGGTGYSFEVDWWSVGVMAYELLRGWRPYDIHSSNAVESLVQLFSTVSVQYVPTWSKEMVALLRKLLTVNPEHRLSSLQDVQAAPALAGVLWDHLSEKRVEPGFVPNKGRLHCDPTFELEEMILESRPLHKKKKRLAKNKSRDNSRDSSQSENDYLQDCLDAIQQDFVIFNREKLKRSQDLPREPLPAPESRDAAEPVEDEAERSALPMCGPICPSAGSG

[41] = target: 5-hydroxytryptamine receptor 1B (Homo sapiens) (UniProt P28222); details: Compound concentration 10.0 uM
[42] = target: Delta-type opioid receptor (Homo sapiens) (UniProt P41143); details: Compound concentration 10.0 uM
[43] = target: Histamine H2 receptor (Homo sapiens) (UniProt P25021); details: Compound concentration 10.0 uM
[44] = target: Histamine H4 receptor (Homo sapiens) (UniProt Q9H3N8); details: Compound concentration 10.0 uM
[45] = target: Alpha-2B adrenergic receptor (Homo sapiens) (UniProt P18089); details: Compound concentration 10.0 uM
Sequence of Alpha-2B adrenergic receptor (Homo sapiens) (P18089 whole entry): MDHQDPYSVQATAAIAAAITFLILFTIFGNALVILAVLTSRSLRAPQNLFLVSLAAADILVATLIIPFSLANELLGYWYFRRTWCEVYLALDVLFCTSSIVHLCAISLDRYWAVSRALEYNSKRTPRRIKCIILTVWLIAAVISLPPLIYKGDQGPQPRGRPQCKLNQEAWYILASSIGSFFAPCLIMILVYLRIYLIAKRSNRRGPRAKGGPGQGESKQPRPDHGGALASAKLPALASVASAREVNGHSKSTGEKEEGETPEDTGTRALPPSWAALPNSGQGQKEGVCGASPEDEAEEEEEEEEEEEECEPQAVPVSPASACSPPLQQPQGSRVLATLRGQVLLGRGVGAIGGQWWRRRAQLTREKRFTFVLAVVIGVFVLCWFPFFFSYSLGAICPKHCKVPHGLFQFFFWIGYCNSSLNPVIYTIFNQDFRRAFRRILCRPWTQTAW

## Cc1ccc(-c2cnc([C@@]3(O)CC[C@H](C(=O)O)C(C)(C)C3)s2)cc1Nc1cccc(C(F)(F)F)n1 [MRL-SYKi-NC]
[1]
  residual activity: 84.1%
[2]
  residual activity: 87.2%
[3]
  residual activity: 100%
[4]
  residual activity: 94.7%
[5]
  residual activity: 100%
[6]
  residual activity: 100%
[7]
  residual activity: 100%
[8]
  residual activity: 95.3%
[9]
  residual activity: 86.2%
[10]
  residual activity: 100%
[11]
  residual activity: 69.4%
[12]
  residual activity: 100%
[13]
  residual activity: 95.6%
[14]
  residual activity: 49.8%
[15]
  residual activity: 99.7%
[16]
  residual activity: 100%
[17]
  residual activity: 95.4%
[18]
  residual activity: 100%
[19]
  residual activity: 100%
[20]
  residual activity: 75.7%
[21]
  residual activity: 100%
[22]
  residual activity: 100%
[23]
  residual activity: 70.5%
[24]
  residual activity: 96%
[25]
  residual activity: 95.5%
[26]
  residual activity: 89.7%
[27]
  residual activity: 96.3%
[28]
  residual activity: 75.8%
[29]
  residual activity: 97.2%
[30]
  residual activity: 100%
[31]
  residual activity: 100%
[32]
  residual activity: 100%
[33]
  residual activity: 51.1%
[34]
  residual activity: 57.3%
[35]
  residual activity: 93.6%
[36]
  residual activity: 100%
[37]
  residual activity: 91.2%
[38]
  residual activity: 100%
[39]
  residual activity: 100%
[40]
  residual activity: 100%
[41]
  inhibition: 20.2%
[42]
  inhibition: 25.1%
[43]
  inhibition: 8.65%
[44]
  inhibition: 8.06%
[45]
  inhibition: 27%

## Cc1cc(Nc2nccc(C)n2)cc(-c2cnc([C@@]3(O)CC[C@H](C(=O)O)C(C)(C)C3)s2)c1 [MRL-SYKi]
[1]
  residual activity: 100%
[2]
  residual activity: 74.3%
[3]
  residual activity: 100%
[4]
  residual activity: 100%
[5]
  residual activity: 74.6%
[6]
  residual activity: 100%
[7]
  residual activity: 92.3%
[8]
  residual activity: 85%
[9]
  residual activity: 100%
[10]
  residual activity: 100%
[11]
  residual activity: 100%
[12]
  residual activity: 100%
[13]
  residual activity: 100%
[14]
  residual activity: 80.7%
[15]
  residual activity: 83.9%
[16]
  residual activity: 100%
[17]
  residual activity: 95.4%
[18]
  residual activity: 100%
[19]
  residual activity: 90.4%
[20]
  residual activity: 92.9%
[21]
  residual activity: 97.9%
[22]
  residual activity: 89.8%
[23]
  residual activity: 100%
[24]
  residual activity: 100%
[25]
  residual activity: 86.5%
[26]
  residual activity: 100%
[27]
  residual activity: 100%
[28]
  residual activity: 77.4%
[29]
  residual activity: 100%
[30]
  residual activity: 100%
[31]
  residual activity: 77.2%
[32]
  residual activity: 100%
[33]
  residual activity: 100%
[34]
  residual activity: 100%
[35]
  residual activity: 96.4%
[36]
  residual activity: 100%
[37]
  residual activity: 75.2%
[38]
  residual activity: 100%
[39]
  residual activity: 100%
[40]
  residual activity: 85.9%
[41]
  inhibition: 11.6%
[42]
  inhibition: 12.8%
[43]
  inhibition: 3.06%
[44]
  inhibition: 7.61%
[45]
  inhibition: -7.14%
